Reference: PubChem BioAssay AID1508591

Conditions: rat; liver microsomes; pH 7.4; 15.0 min; 1.0 µM

Row | half-life | SMILES
1 | 21 min | O=[S+]([O-])(Nc1ccc2ccccc2c1)c1ccc(NCc2ccc(Cl)cc2O)cc1
2 | > 30 min | CC(=O)c1ccc(N2CCN(S(=O)(=O)c3ccc4[nH]c(=O)[nH]c4c3)CC2)cc1
3 | 14.7 min | CCc1ccc(NC(=O)c2[nH]c(C)c(C(C)=O)c2C)cc1S(=O)(=O)Nc1ccc(C#N)cc1
4 | 19.6 min | CC(C)(C)c1ccc(OCc2nn3c(-c4ccncc4)nnc3s2)cc1
5 | > 30 min | O=C(Cc1ccc(Cl)cc1)Nc1cnccc1C(=O)O
6 | 3.74 min | Cc1nc(NC2CCCCC2)c2nc(-c3ccccc3)n(CCN(C)C)c2n1
7 | > 30 min | Cc1nc2sccn2c(=O)c1S(=O)(=O)Nc1ccc(N2CCN(S(C)(=O)=O)CC2)cc1
8 | > 30 min | COc1ccc(C2C=C(c3ccc(Cl)cc3)Nc3nc(-c4ccc(Cl)cc4)nn32)cc1 (centres undefined)
9 | 2.16 min | Cc1ccccc1S(=O)(=O)N1CCCC(CCC(=O)NCCN(C)C2CCCCC2)C1 (centres undefined)
10 | 2.22 min | Cc1ccc(-c2csc(N3CCC(C(N)=O)CC3)n2)cc1
11 | 3.54 min | CSc1ccc(/C=C/c2nc3ccccc3n2S(=O)(=O)c2cccc(Cl)c2)cc1
12 | 1.6 min | COc1ccc(C2Nc3ccccc3C(=O)N2Cc2ccco2)cc1 (centres undefined)
13 | > 30 min | Cc1ncc2c(c1CNC(=O)Cn1cnc3ccccc3c1=O)CCNC2
14 | 13.4 min | O=C1NCc2cc(-c3cc4c(ccn4Cc4ccncc4)c(N4CCOCC4)n3)ccc21
15 | > 30 min | COc1cc([C@@H]2c3cc4c(cc3[C@H](O)[C@H]3COC(=O)[C@H]23)OCO4)cc(OC)c1OC
16 | > 30 min | CC(C)(Nc1nc(-c2ccccc2C(F)(F)F)nc2ccccc12)c1ccc(-c2cccc(C(F)(F)F)c2)cc1
17 | 20 min | O=C1Nc2ccccc2/C1=C\c1ccc(O)c(F)c1
18 | 27 min | Fc1ccc(Nc2nc(-c3ccncc3)ncc2-c2ccccc2)cc1F
19 | > 30 min | O=C(c1ccc(C(=O)N2CCC(N3CCCC3)CC2)c(Nc2ccccc2)c1)N1CCC(N2CCCC2)CC1
20 | 4.87 min | Cc1ccc(-c2nn(C(C)(C)C)c3ncnc(N)c23)cc1
21 | 2.4 min | CCc1[nH]c2ccc(CNC(=O)Cc3cnc4c(C)cccn34)cc2c1C
22 | > 30 min | COC(=N)c1nc2ccc3ncnc(Nc4ccc(F)cc4Br)c3c2s1
23 | > 30 min | COc1ccc(NC(=O)c2[nH]c(C)c(C(C)=O)c2C)cc1[S+](=O)([O-])Nc1ccccc1C#N
24 | > 30 min | C1CCc2nc3c(nc2C1)CCCC3

Row | half-life | SMILES
25 | 10.8 min | O=C(Nc1nnc(-c2ccco2)o1)c1ccc(Cl)cc1
26 | 1.05 min | CC(C)NC(=O)C1CCN(C(=O)c2cc3sccc3n2Cc2ccc(Cl)cc2)CC1
27 | 1.31 min | Cc1ccc(-c2nnc(Nc3ccc(Br)cc3)c3ccccc23)cc1S(=O)(=O)N1CCN(C)CC1
28 | 2 min | CC(C)(C)OC(=O)N[C@@H](Cc1ccc(OS(=O)(=O)c2cccc3cnccc23)cc1)C(=O)N1CCCN(C(=O)OC(C)(C)C)CC1
29 | > 30 min | CNC(=O)C1CCN(C(=O)c2ccc(-c3ncc4cnc(-c5ccccc5)cn34)cc2)CC1
30 | 3.5 min | Cc1ccc(S(=O)(=O)Nc2ccccc2C(=O)Nc2cnc(-c3ccccc3)cn2)cc1
31 | 7.7 min | Cc1cc(C)c(C(=O)Nc2cccc([S+](=O)([O-])Nc3ccc(Br)cc3)c2)[nH]1
32 | 25.5 min | COc1cc(CNCCO)cc(Cl)c1OCc1ccc(Cl)cc1Cl
33 | 6.33 min | COc1ccc(-n2nc(C3CCCN([S+](=O)([O-])c4cccc(C(F)(F)F)c4)C3)[nH]c2=O)cc1 (centres undefined)
34 | 2.6 min | O=C1CCCC2=C1C1(CCCC1)N=C(Nc1nc3cc(Cl)ccc3o1)N2
35 | > 30 min | N#Cc1ccc(N2N=C3c4ccc(C(=O)O)cc4CC[C@@H]3[C@@H]2C2CCCC2)cc1Cl
36 | 13 min | Clc1ccc(-c2nc(-c3ccc(Br)o3)no2)c(Cl)c1
37 | 6.6 min | O=C1CCCC2=C1C(c1ccncc1Cl)N=C(Nc1nc3ccccc3o1)N2 (centres undefined)
38 | > 30 min | O=C(O)c1ccnc2cc(-c3nc4ccccc4n3CCN3CCCCC3)sc12
39 | > 30 min | Cc1ccc(S(=O)(=O)Nc2cnccc2C(=O)Nc2nc(-c3cccc(Cl)c3)cs2)cc1
40 | 21.8 min | Clc1ccc2ncc(-c3cccc(NC4CCNC4)n3)n2c1 (centres undefined)
41 | 5.16 min | CCN(CC)C(=O)c1sc2c(c1C)c(=O)n(Cc1ccccc1)c(=O)n2CC(=O)Nc1ccc(OC)cc1
42 | 8.35 min | C[C@@]1(C(=O)Nc2ccc(F)nc2)CCCN1c1nc(Nc2cc(C3CC3)[nH]n2)c2cccn2n1
43 | > 30 min | COc1ccnc(NC(=S)N2CCN(c3cc(C(F)(F)F)cc(C(F)(F)F)c3)CC2)c1
44 | > 30 min | CC(=O)NCc1ccc(-c2csc(Nc3cccc(C)c3)n2)o1
45 | 10 min | O=C1CCCC2=C1C(c1[nH]ncc1Cl)N=C(Nc1nc3ccc(Cl)cc3o1)N2 (centres undefined)
46 | 15 min | COc1ccccc1-c1csc(N2CCC(C(N)=O)CC2)n1
47 | > 30 min | CCN1CCN(CC(=O)Nc2ccc(-c3cccc4c(=O)cc(N5CCOCC5)oc34)c3sc4ccccc4c23)CC1
48 | > 30 min | COc1cccc(C(=O)Nc2nc(-c3nnn(-c4ccccc4C(F)(F)F)c3C)ns2)c1

Row | half-life | SMILES
49 | 13 min | COc1ccc2[nH]c(=O)c(-c3noc(-c4cccs4)n3)cc2c1
50 | > 30 min | C#CCOc1ccc(-c2nnc(Nc3ccc(NC(C)=O)cc3)c3ccccc23)cc1
51 | 9 min | COc1cc(NS(=O)(=O)c2ccc(C)cc2)c(C(=O)Nc2nc(-c3ccccc3)cs2)cc1OC
52 | 3.88 min | COC(=O)c1ccc(NS(=O)(=O)c2c(C)nc3sccn3c2=O)cc1
53 | 3.09 min | NC(=O)C1CCN(c2nc(-c3ccc4c(c3)OCCO4)cs2)CC1
54 | 8.06 min | O=C(CCCCn1c(=O)[nH]c2ccsc2c1=O)N1CCN(c2cccc(Cl)c2)CC1
55 | 8.96 min | Cc1ccc(NC2=C(c3ccc(C(F)(F)F)cc3)C(=O)c3ccccc32)cc1F
56 | > 30 min | Cc1cc(NS(=O)(=O)c2ccc(N(C)C(=O)Cc3ccc(Cl)c(Cl)c3)cc2)no1
57 | 14.1 min | Cc1ccc(NC(=O)NCC2CCN(Cc3cccc(Cl)c3)CC2)cc1Cl
58 | 25 min | Nc1ccc(S(=O)(=O)Nc2cnccc2C(=O)Nc2nc(-c3ccccc3)cs2)cc1
59 | 13 min | CN(C(=O)CSc1nc2c(c(=O)[nH]1)CCCC2)c1ccccc1
60 | 6.35 min | Oc1ccc(CNc2cccc(F)c2F)c2cccnc12
61 | 15.1 min | O=C(N/N=C/c1ccc(O)c(O)c1)c1cc2ccccc2cc1O
62 | 3.17 min | COc1cccc(Cn2c(=O)n(-c3cccc(Cl)c3C)c(=O)c3c4c(sc32)CN(C(C)=O)CC4)c1
63 | 13 min | CCNc1oc(-c2cccc3ccccc23)nc1C#N
64 | > 30 min | Cc1cc(C)nc(NC(=S)N2CCN(Cc3cccc(C(F)(F)F)c3)CC2)c1
65 | 11 min | CC1(C)CC(=O)C2=C(C1)NC(Nc1nc3ccccc3o1)=NC2c1ccccc1Cl (centres undefined)
66 | 22.7 min | Cc1ccc(-n2ncc3c(NCCCn4ccnc4)ncnc32)cc1Cl
67 | 2.56 min | O=C1CCc2ccc(OCCCCN3CCN(c4cccc(Cl)c4Cl)CC3)cc2N1
68 | 3.06 min | C=CC(=O)Nc1cccc(Oc2nc(Nc3ccc(N4CCN(C)CC4)cc3)ncc2Cl)c1
69 | > 30 min | C=C1c2cccc(O)c2C(O)=C2C(=O)[C@]3(O)C(O)=C(C(N)=O)C(=O)[C@@H](N(C)C)[C@@H]3[C@@H](O)[C@H]12
70 | 2.4 min | Cc1ccc(N2CCC(CNc3nc(-c4ccccc4C(C)C)ncc3F)CC2)cn1
71 | 2.31 min | COC(=O)c1c(NC(=O)Cc2coc3cc(C)ccc23)sc2c1CCC2
72 | 28 min | Fc1cc(Nc2nc(-c3ccncc3)nc3ccccc23)ccc1OCC(F)(F)F

Row | half-life | SMILES
73 | 24.8 min | Cc1noc(C)c1[S+](=O)([O-])N1CCC2(CC1)CC(c1cccc(C(F)(F)F)c1)=NO2
74 | > 30 min | CC(=O)c1ccc(N2CCN(C(=O)c3ccc4c(c3)CC(=O)N4)CC2)cc1
75 | 4.8 min | CNc1nc(C#N)c(-c2cccc3ccccc23)o1
76 | > 30 min | COc1c(C)cc(NC(=O)c2nn(Cc3ccc(F)cc3)c3c2CN(C(=O)c2ccc[nH]2)C[C@]3(C)C(N)=O)cc1C
77 | 2.42 min | CC(C)N(CCCNC(=O)Nc1ccc(C(C)(C)C)cc1)C[C@H]1O[C@@H](n2ccc3c(N)ncnc32)[C@H](O)[C@@H]1O
78 | 1.44 min | CN(Cc1cccs1)c1ncnc2ccc(-c3ccc4c(c3)OCO4)cc12
79 | 2.27 min | Cc1ccc(-n2nc3c(=O)n(CCCC(=O)NC(C)c4ccccc4)nc(C)c3c2C)cc1 (centres undefined)
80 | > 30 min | COC(=O)c1ccc2c(c1)nc1n2[C@@H](CNC(C)=O)COC1
81 | 2.04 min | CCOc1ccc(OCC)c(NC(=O)C(NS(=O)(=O)c2ccc(Br)s2)c2ccccc2)c1 (centres undefined)
82 | 27.3 min | COc1ccc2c(c1)CCc1c-2n[nH]c1C(=O)N1CCc2c(nc3cc(-c4ccccc4)[nH]n3c2=O)C1
83 | 8.43 min | O=C(c1nc(-c2cccnc2)c2ccccn12)N1CCN(c2ncccn2)CC1
84 | 2.1 min | CCc1ccc(NC(=O)c2[nH]c(C)c(C(C)=O)c2C)cc1[S+](=O)([O-])N1CCCCCC1
85 | 17.2 min | CC(C)(C)NS(=O)(=O)c1ccc(-c2ccc3[nH]nc(N)c3c2)cc1
86 | 1.6 min | Cc1cccc2nc(NC3=NC(c4[nH]ncc4Cl)C4=C(CCCC4=O)N3)oc12 (centres undefined)
87 | 23.5 min | CC1CCC(n2c3cnccc3c3cnc(Nc4ccc5c(n4)CCN(C(=O)CO)C5)nc32)CC1 (centres undefined)
88 | 26 min | Nc1nc2c(s1)C(c1cccc(Cl)c1Cl)CC(=O)N2 (centres undefined)
89 | 9.4 min | O=C1CCCC2=C1C(c1[nH]ncc1Cl)N=C(Nc1nc3cc([S+](=O)([O-])N4CCOCC4)ccc3o1)N2 (centres undefined)
90 | > 30 min | COc1ccc(C2=Nn3c([n+](C)c4ccccc43)SC2)cc1
91 | > 30 min | Cc1ccc(S(=O)(=O)Nc2cnccc2C(=O)Nc2nc(-c3ccc(Cl)cc3)cs2)cc1
92 | > 30 min | CCN(c1cc(C#CCN2CCOCC2)cc(C(=O)NCc2c(C)cc(C)[nH]c2=O)c1C)C1CCC(N(C)CCOC)CC1 (centres undefined)
93 | 15.2 min | CC1(C)CNc2cc(NC(=O)c3cccnc3NCc3ccncc3)ccc21
94 | 27.9 min | COc1cccc(C(=O)Nc2ccc3oc(-c4ccc5ccccc5c4)nc3c2)c1
95 | > 30 min | Nc1cccc(CNc2ccc(S(=O)(=O)Nc3nccs3)cc2)c1O
96 | 12 min | CC(=O)Nc1cc(-c2nc(Nc3ccc(F)c(F)c3)c3ccccc3n2)ccn1

Row | SMILES | half-life
97 | COc1ccc2c(c1)/C(=C/c1cnc[nH]1)C(=O)N2 | > 30 min
98 | Cc1cccc(-n2nc(C)c3c2NC(=O)CSC3c2ccccc2Cl)c1 (centres undefined) | 1.63 min
99 | CN1Cc2c(ccc3c2OCO3)[C@@H]2[C@H]1c1cc3c(cc1C[C@@H]2O)OCO3 | 2.12 min
